Measured values as given in patent publication US10925969B2, “Anti-BCMA polypeptides and proteins” (priority 2015, dated 2021).

How the values were obtained:
H929 cell line = test: Cell killing by trypan blue staining, cells seeded at 10^6 per ml; format: cell-based; settings: H929, agent added D-0 (LMB38 100 ng/ml), washed after D-3
Experimental: (§1) The BCMA-positive H929, U266, and RPMI cell lines were seeded at 10^6 per ml in 3 ml volume. LMB38 (BM24-Fab-LRggs) was added at 100 ng/ml at Day 0 (D-0). Cells (10 μl) were taken on different days and counted after trypan blue staining. After D-3, cells were washed and plated with media containing no toxin. For the 6 hour group, cells were washed after 6 h and plated in regular media containing no toxin. Cyclohexamide (Chxm) and 205 were used as positive controls; SS1-Fab-immunotoxin targeting mesothelin was used as a negative control (Ctrl).

RPMI cell line = test: as above; format: cell-based; settings: agent added D-0 (LMB38 100 ng/ml)
Experimental: as §1

U266 cell line = test: as above; format: cell-based; settings: U266, agent added D-0 (LMB38 100 ng/ml), washed after D-3
Experimental: as §1

BCMA-rFc protein = target: T1, BCMA-rFc protein (Homo sapiens, UniProt Q02223); test: Binding kinetics of MAbs by bio-layer interferometry (BLITZ); settings: for ka / kd: BCMA-rFc immobilized sensor
T1 construct: the extracellular domain of human BCMA (residues 1-54) fused to the Fc region; made in house
T1 sequence (Q02223 1-54): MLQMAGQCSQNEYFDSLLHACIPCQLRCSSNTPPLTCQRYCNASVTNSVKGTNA
Experimental: The binding kinetics of MAbs to BCMA were measured by bio-layer interferometry using a BLITZ (ForteBio, Menlo Park, Calif.) instrument. According to the manufacturer's instructions, BCMA-rFc were immobilized on amine-reactive second-generation biosensors by amine coupling following the activation of the sensor surface with N-hydroxysuccinimide (NHS) and N-ethyl-N-(3-dimethylaminopropyl) carbodiimide hydrochloride (EDC). Serial dilutions of MAbs were run across sensor surface at five different concentration in PBS (pH 7.4). The sensorgram data set was globally fit using the built-in BLITZ software to determine association rate constant (Ka), dissociation rate constant (Kd), and affinity constant (KD).
The binding kinetics of these two anti-BCMA mAbs against BCMA-rFc protein were measured by bio-layer interferometry. Serial dilutions of anti-BCMA MAbs (20, 10, 5, 2.5, 1.25 μg/ml) were applied to the BCMA-rFc immobilized sensor and detected. Real-time biomolecular interaction analyses were performed with BLITZ software. […] The dissociation constants (KD) of both mAbs were less than 1×10^−12 (exceeded the detection limits).

[1] = tested on: TNFRs (BCMA, TACI or BAFFR); test: Cross-reactivity with TNFR superfamily members by FACS (transfected 293T cells) and ELISA (TNFR-rFc); format: binding, human; settings: mAb at 4 μg/ml
Experimental: For transfection experiments, 293T cells were seeded in 100 mm dishes (BD Biosciences, Bedford, Mass.) and grown at the subconfluent densities. pcDNA6/BCMA, pcDNA/TACI, or pcDNA6/BAFFR (6 μs) were transfected per dish by LIPOFECTAMINE LX and PLUS reagent according to the manufacturer's instructions. After 24 h, the transiently transfected cells were harvested and used for FACS screening. Cells (1-5×10^5) were incubated with serial dilution of hybridoma supernatants in FACS buffer (PBS containing 5% FBS and 0.1% sodium azide) for 1 h on ice. After washing twice with FACS buffer, the cells were incubated with 1:200 dilution of R-Phycoerythrin (PE)-labelled goat anti-mouse IgG F(ab′)2 (Jackson Immuno Research Laboratories, West Grove, Pa.) for 30 min. After washing twice, the cells were resuspended in 180 μl FACS buffer containing 10 nM TO-PRO-3 stain (Invitrogen), and the fluorescence associated with the live cells was measured using a BD ACCURI C6 flow cytometer (BD Biosciences). Positive hybridoma clones were transferred to 24-well pates. To exclude the false positive in the first screening, 24-well culture supernatants were re-assayed 2 days after transfer. […] The isotype of established monoclonal antibodies (MAb) was determined by a mouse MAb isotyping reagents (Sigma-Aldrich). Immunoglobulin concentrations in the culture supernatants were determined by a sandwich ELISA. […]

[2] = target: T2, BCMA-expressing 293T cells (Homo sapiens, UniProt Q02223); test: FACS screening of binding to cell-surface BCMA
T2 construct: One vector encoded the full-length human BCMA; expressed in transfected cells; host or cells: 293T cells transiently transfected with pcDNA6/BCMA
T2 sequence (Q02223 1-184): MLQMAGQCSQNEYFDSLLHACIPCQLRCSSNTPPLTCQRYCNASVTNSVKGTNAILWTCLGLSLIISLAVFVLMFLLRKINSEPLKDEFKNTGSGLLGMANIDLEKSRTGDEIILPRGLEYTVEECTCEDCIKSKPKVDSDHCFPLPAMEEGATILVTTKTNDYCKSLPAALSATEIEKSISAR
Experimental: For transfection experiments, 293T cells were seeded in 100 mm dishes (BD Biosciences, Bedford, Mass.) and grown at the subconfluent densities. pcDNA6/BCMA, pcDNA/TACI, or pcDNA6/BAFFR (6 μs) were transfected per dish by LIPOFECTAMINE LX and PLUS reagent according to the manufacturer's instructions. After 24 h, the transiently transfected cells were harvested and used for FACS screening. Cells (1-5×10^5) were incubated with serial dilution of hybridoma supernatants in FACS buffer (PBS containing 5% FBS and 0.1% sodium azide) for 1 h on ice. […] After washing twice, the cells were resuspended in 180 μl FACS buffer containing 10 nM TO-PRO-3 stain (Invitrogen), and the fluorescence associated with the live cells was measured using a BD ACCURI C6 flow cytometer (BD Biosciences). […] The isotype of established monoclonal antibodies (MAb) was determined by a mouse MAb isotyping reagents (Sigma-Aldrich). Immunoglobulin concentrations in the culture supernatants were determined by a sandwich ELISA.
Mice were intraperitoneally immunized with BCMA-rFc fusion protein in adjuvant for the first immunization, and subsequently immunized 5 times with BCMA-rFc without adjuvant. High antibody titers (1:10,000) against the BCMA-expressing 293T cells were detected in the sera from mice immunized with BCMA-rFc. […]

H929 cells = test: WST-8 assay of AF647-labeled and unlabeled LMB70; format: cell-based; settings: for IC50 (WST-8): in ng/mL
Experimental: (§2) LMB70 was labeled with AF647 for measurement of uptake in vivo. LMB70 was labeled twice with AF647 using an AF647 labeling kit (Life Technologies). Labeling efficacy and activity were measured by WST-8 assay and affinity measurement.

BCMA = target: T3, BCMA (Homo sapiens, UniProt Q02223); test: Affinity measurement of AF647-labeled and unlabeled LMB70; format: binding; settings: after the first labeling
T3 sequence (Q02223 1-184): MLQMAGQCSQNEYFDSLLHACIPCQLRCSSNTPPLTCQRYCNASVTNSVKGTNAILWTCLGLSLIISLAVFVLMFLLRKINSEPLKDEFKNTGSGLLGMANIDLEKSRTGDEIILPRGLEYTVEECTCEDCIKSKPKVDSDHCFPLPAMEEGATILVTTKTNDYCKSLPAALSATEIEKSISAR
Experimental: as §2

[3] = target: T4, BCMA molecules on the surface of H929 cells (Homo sapiens, UniProt Q02223); test: Quantification of BCMA molecules on cell surface by flow cytometry with labeled LMB70; format: binding; settings: 1h on ice
T4 construct: endogenous in cells; host or cells: H929 cells
T4 sequence (Q02223 1-184): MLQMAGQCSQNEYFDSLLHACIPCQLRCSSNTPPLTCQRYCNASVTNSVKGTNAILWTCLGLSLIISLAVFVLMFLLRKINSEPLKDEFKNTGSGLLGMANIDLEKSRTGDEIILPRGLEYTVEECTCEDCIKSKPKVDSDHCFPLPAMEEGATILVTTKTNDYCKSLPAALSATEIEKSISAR
Experimental: To quantify the BCMA molecules on the surface of H929 cells, H929 cells were incubated with various concentrations of labeled LMB70 for 1h on ice in FLOW buffer. The cells were washed and analyzed by flow cytometry, together with AF647 quantification beads.

Q: For `C[C@@H]1C[C@@H]([C@H](O)CC2CC(=O)NC(=O)C2)C(=O)[C@@H](C)C1` [Chxm, Cyclohexamide], which Percent dead (H929 cell line; D-0) is on record?
A: 9%

Q: What about the Percent dead (H929 cell line; D-1) of the same molecule?
A: 70%

Q: What about the Percent dead (H929 cell line; D-2) of the same molecule?
A: 92%

Q: What about the Percent dead (H929 cell line; D-3) of the same molecule?
A: 100%

Q: What about the Percent dead (H929 cell line; D-6) of the same molecule?
A: 100%

Q: What about the Percent dead (RPMI cell line; washed after D-3, D-0) of the same molecule?
A: 15%

Q: What about the Percent dead (RPMI cell line; washed after D-3, D-1) of the same molecule?
A: 75%

Q: What about the Percent dead (RPMI cell line; washed after D-3, D-2) of the same molecule?
A: 100%

Q: And the Percent dead (RPMI cell line; washed after D-3, D-3)?
A: 100%

Q: What about the Percent dead (RPMI cell line; washed after D-3, D-6) of the same molecule?
A: 100%

Q: And the Percent dead (U266 cell line; D-0)?
A: 7%

Q: What about the Percent dead (U266 cell line; D-1) of the same molecule?
A: 25%

Q: And the Percent dead (U266 cell line; D-2)?
A: 50%

Q: And the Percent dead (U266 cell line; D-3)?
A: 80%

Q: And the Percent dead (U266 cell line; D-6)?
A: 100%

B1: BM306: anti-BCMA mAb, IgG1 isotype; VH SEQ ID NO: 15, VL SEQ ID NO: 16 (antibody, V domains shown)
VH: MEVQLQQSGPELVKPGASVKISCKTSGYTFTEYTINWVKQSHGKSLEWIGDIYPDNYNIRYNQKFKGKATLTVDKSSSTAYMELRSLSSEDSAIYYCANHDFFVFWGQGTLVTVSAAK
VL: MDIQMTQATSSLSASLGDRVTINCRTSQDISNHLNWYQQKPDGTVKLLIYYTSRLQSGVPSRFSGSGSGTDYSLTISNLEQEDIGTYFCHQGNTLPPTFGGGTKLEIKR
modifications: IgG1
Q: Which “association rate constant (Ka) compared to BM24” value (BCMA-rFc protein) does the source give for B1 here?
A: high

Q: And the “ka” value (BCMA-rFc protein)?
A: 415000 M⁻¹ s⁻¹

Q: And the “kd” value (BCMA-rFc protein)?
A: <1e-07 s⁻¹

Q: What about the “cross-reactivity with other TNFR superfamily members” value [1] of the same molecule?
A: specific to BCMA

Q: And the “binding to BCMA antigen on the cell surface” value [2]?
A: high affinity and specificity

B2: labeled LMB70: LMB70 labeled with AF647 using an AF647 labeling kit (conjugate)
VH: EVQLQQSGPELVKPGASVKISCKTSGYTFTEYTINWVKQSHGKSLEWIGDIYPDNYNIRYNQKFKGKATLTVDKSSSTAYMELRSLSSEDSAIYYCANHDFFVFWGQGTLVTVSA
VL: DIQMTQATSSLSASLGDRVTINCRTSQDISNHLNWYQQKPDGTVKLLIYYTSRLQSGVPSRFSGSGSGTDYSLTISNLEQEDIGTYFCHQGNTLPPTFGGGTKLEIK
modifications: left off: another chain or arm of the molecule; a dimerising Fc or GST; small tags and cut ends
notes: LMB70 labeled with AF647 using an AF647 labeling kit
Q: For B2, which “IC50 (WST-8)” value (H929 cells; after the first labeling) is on record?
A: 6.082

Q: And the “IC50 (WST-8)” value (H929 cells; after the second labeling)?
A: 10.69

Q: What about the “fold less active than the unlabeled toxins” value (H929 cells; labeled versus unlabeled) of the same molecule?
A: about 4 fold

Q: What about the “Bmax (affinity measurement)” value (BCMA) of the same molecule?
A: 1131

Q: What about the Bmax ([3]; first labeling) of the same molecule?
A: 150,000 molecules per cell

Q: What about the Bmax ([3]; second labeling) of the same molecule?
A: 230,000 molecules per cell

B3: BM24: anti-BCMA mAb, IgG1 isotype; VH SEQ ID NO: 13, VL SEQ ID NO: 14 (antibody, V domains shown)
VH: MEVQLQQSGPELVKPGASVKMSCKASGNTLTNYVIHWMKQMPGQGLDWIGYILPYNDLTKYNEKFTGKATLTSDKSSSSAYMELNSLTSEDSAVYYCTRWDWDGFFDPWGQGTTLTVSSAS
VL: MDIVMTQSPLSLPVSLGDQASISCRSTQSLVHSNGNTHLHWYLQRPGQSPKLLIYSVSNRFSEVPDRFSASGSGTDFTLKISRVEAEDLGVYFCSQTSHIPYTFGGGTKLEIKR
modifications: IgG1
Q: With B3 as the molecule, how does the “ka” value (BCMA-rFc protein) read?
A: 297000 M⁻¹ s⁻¹

Q: And the “kd” value (BCMA-rFc protein)?
A: <1e-07 s⁻¹

Q: And the “cross-reactivity with other TNFR superfamily members” value [1]?
A: specific to BCMA

Q: And the “binding to BCMA antigen on the cell surface” value [2]?
A: high affinity and specificity
